{
  "source": "paper PMC6366404",
  "about": "“4-(3-Nitrophenyl)thiazol-2-ylhydrazone derivatives as antioxidants and selective hMAO-B inhibitors: synthesis, biological activity and computational analysis” (Journal of Enzyme Inhibition and Medicinal Chemistry, 2019)",
  "key": {"[1]": {"assay": "Phosphomolybdenum assay (PhosphoMo), total antioxidant activity", "conditions": "concentration at which absorbance was 0.5"}, "[2]": {"assay": "DPPH radical scavenging activity"}, "hMAO-B": {"biological_target": "T1, hMAO-B (Homo sapiens, UniProt P27338)", "T1 sequence (P27338 1-520)": "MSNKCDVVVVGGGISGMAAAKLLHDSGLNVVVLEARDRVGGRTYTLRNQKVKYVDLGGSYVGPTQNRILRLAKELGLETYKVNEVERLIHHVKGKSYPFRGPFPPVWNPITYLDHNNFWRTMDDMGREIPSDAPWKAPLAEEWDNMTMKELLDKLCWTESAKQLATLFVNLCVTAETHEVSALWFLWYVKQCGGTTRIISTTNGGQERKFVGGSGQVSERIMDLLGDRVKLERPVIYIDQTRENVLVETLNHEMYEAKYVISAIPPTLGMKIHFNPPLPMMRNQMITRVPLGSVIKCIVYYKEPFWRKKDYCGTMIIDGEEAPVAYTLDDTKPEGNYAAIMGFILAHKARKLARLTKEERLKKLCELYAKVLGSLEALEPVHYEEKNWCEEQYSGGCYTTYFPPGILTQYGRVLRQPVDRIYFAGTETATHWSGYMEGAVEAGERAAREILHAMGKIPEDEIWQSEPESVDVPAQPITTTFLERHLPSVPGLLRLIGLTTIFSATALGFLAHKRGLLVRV", "assay": "Reversibility of MAO-B inhibition by dialysis", "format": "biochemical", "description": "Stock solutions of the test compounds were prepared in DMSO and added to the incubations to yield 4% DMSO. The samples were dialyzed for 24 h at 4 °C in 80 ml of dialysis buffer using Slide-A-Lyzer® dialysis cassettes (Thermo Scientific) with a molecular weight cut-off of 10,000 and a sample volume capacity of 0.5–3 ml. The dialysis buffer was replaced at 3 and 7 h after the start of dialysis. Following dialysis, the dialysis samples were diluted twofold with the addition of kynuramine to yield a kynuramine concentration and inhibitor concentration of 50 µM and 2 × IC50, respectively. The reactions (500 µL) were incubated for 20 min at 37 °C and terminated with NaOH (400 μL, 2 N) and water (1000 µL). The fluorescence of 4-hydroxyquinoline in these samples was measured as described for the IC50 determination above. […] Undialysed mixtures of MAO-B and the test inhibitors were maintained at 4 °C for 24 h and diluted and assayed as above. All reactions were carried out in triplicate and the residual enzyme catalytic rates are expressed as mean ± SD.\nReversibility of MAO inhibition is an important factor to consider when evaluating the inhibition properties of potential inhibitors. Irreversible MAO inhibitors, particularly of the MAO-A isoform, are associated with dangerous adverse effects such as the cheese reaction, which occurs when irreversible MAO-A inhibitors are taken with tyramine-rich food[51]. […] The samples were diluted twofold and the residual MAO-B activity was measured. For reversible inhibition, dialysis is expected to reverse inhibition by the test inhibitors and restore enzyme activity to the level of the negative control. […] A final experiment consisted of incubations containing MAO-B and tested inhibitors which were not dialyzed, but maintained for 24 h."}},
  "data": [
    {"smiles": "CC(=NNc1nc(-c2cccc([N+](=O)[O-])c2)cs1)c1cccs1", "note": "[Compound 4, 1-(4-(3-Nitrophenyl)thiazol-2-yl)-2-(1-(thiophen-2-yl)ethylidene)hydrazine]", "values": [
      {"measurement": "EC50", "setting": "[1]", "value": "1680 ± 90", "unit": "µM"},
      {"measurement": "IC50", "setting": "[2]", "value": "1170 ± 10", "unit": "µM"},
      {"measurement": "Reversibility of MAO-B inhibition", "setting": "hMAO-B; dialysis 24 h", "value": "partially reversible"},
      {"measurement": "Residual MAO-B activity, undialysed mixtures", "setting": "hMAO-B; inhibitor at 4 × IC50, not dialyzed, maintained 24 h", "value": 33, "unit": "%"},
      {"measurement": "Residual MAO-B activity after dialysis", "setting": "hMAO-B; inhibitor at 4 × IC50, preincubated 15 min, dialyzed 24 h, relative to negative control", "value": 61, "unit": "%"}
    ]}
  ]
}
